Source: patent US8829030B2 (priority 2002, dated 2014)
Structures can show the parent of a compound that is named as a salt.

What follows are compounds tested against recombinant HCV RNA-dependent RNA polymerase (NS5B protein) (Hepatitis C virus genotype 1b, UniProt P26663) (assay: biochemical). Conditions: not given.
Design: species or system HCV-Bk strain

Chain of recombinant HCV RNA-dependent RNA polymerase (NS5B protein) (P26663 2420-3010 limits assumed): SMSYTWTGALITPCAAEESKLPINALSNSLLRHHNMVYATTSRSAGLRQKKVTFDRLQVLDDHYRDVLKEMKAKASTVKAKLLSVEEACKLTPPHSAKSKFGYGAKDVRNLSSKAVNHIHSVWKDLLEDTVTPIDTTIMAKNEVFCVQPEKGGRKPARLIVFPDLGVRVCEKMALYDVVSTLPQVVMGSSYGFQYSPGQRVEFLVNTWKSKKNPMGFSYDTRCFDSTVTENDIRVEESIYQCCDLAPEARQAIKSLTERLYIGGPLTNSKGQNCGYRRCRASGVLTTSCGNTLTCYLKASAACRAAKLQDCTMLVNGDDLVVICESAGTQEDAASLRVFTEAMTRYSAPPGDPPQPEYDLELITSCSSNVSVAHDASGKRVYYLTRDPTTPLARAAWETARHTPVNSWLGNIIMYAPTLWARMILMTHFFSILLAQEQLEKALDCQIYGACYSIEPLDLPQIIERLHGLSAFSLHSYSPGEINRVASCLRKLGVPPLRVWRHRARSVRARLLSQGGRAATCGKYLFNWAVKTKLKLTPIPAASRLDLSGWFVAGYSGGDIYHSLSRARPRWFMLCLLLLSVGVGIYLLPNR

| Compound | IC50 [µM] |
| --- | --- |
| CC(C)N(C(=O)[C@H]1CC[C@H](C)CO1)c1cc(-c2ccccc2)sc1C(=O)O (relative stereo) [Compound 27, 3-[Isopropyl-(trans-5-methyl-tetrahydro-pyran-2-carbonyl)-amino]-5-phenyl-thiophene-2-carboxylic acid] | < 5 |
| C[C@H]1CC[C@H](C(=O)N(c2cc(-c3ccccc3)sc2C(=O)O)C2CC[S+]([O-])CC2)CC1 (relative stereo) [Compound 68, 3-[(trans-4-Methyl-cyclohexanecarbonyl)-(1-oxo-tetrahydro-thiopyran-4-yl)-amino]-5-phenyl-thiophene-2-carboxylic acid] | < 5 |
| CC1(O)CCC(N(c2cc(-c3ccccc3)sc2C(=O)O)C(=O)[C@H]2CC[C@@H](C)CC2)CC1 (relative stereo) [Compound 86, cis-3-[(4-Hydroxy-4-methyl-cyclohexyl)-(4-methyl-cyclohexanecarbonyl)-amino]-5-phenyl-thiophene-2-carboxylic acid] | < 5 |
| C[C@H]1CC[C@H](C(=O)N(c2cc(-c3ccccc3)sc2C(=O)O)[C@H]2CCC[C@@H](O)C2)CC1 (stereo in doubt) [Compound 87, 3-[(3-hydroxy-cyclohexyl)-(4-methyl-cyclohexanecarbonyl)-amino]-5-phenyl-thiophene-2-carboxylic acid] | < 5 |
| C[C@H]1CC[C@H](C(=O)N(c2cc(-c3ccccc3)sc2C(=O)O)[C@H]2CCC[C@H](O)C2)CC1 (stereo in doubt) [Compound 89, 3-[(3-hydroxy-cyclohexyl)-(4-methyl-cyclohexanecarbonyl)-amino]-5-phenyl-thiophene-2-carboxylic acid] | < 5 |
| CC1CCC(C(=O)N(CC2CCCNC2)c2cc(-c3ccccc3)sc2C(=O)O)CC1 (centres unmarked) [Compound 1, 3-{[(2-carboxy-5-phenyl-thiophen-3-yl)-(4-methyl-cyclohexanecarbonyl)-amino]-methyl}-piperidinium; trifluoro-acetate] | < 5 |
| CC1CCC(C(=O)N(CC2CCCCN2)c2cc(-c3ccccc3)sc2C(=O)O)CC1 (centres unmarked) [Compound 2, 2-{[(2-carboxy-5-phenyl-thiophen-3-yl)-(4-methyl-cyclohexanecarbonyl)-amino]-methyl}-piperidinium; trifluoro-acetate] | < 5 |
| CC1CCC(C(=O)N(Cc2cccnc2)c2cc(-c3ccccc3)sc2C(=O)O)CC1 (centres unmarked) [Compound 3, 3-[(4-methyl-cyclohexanecarbonyl)-pyridin-3-ylmethyl-amino]-5-phenyl-thiophene-2-carboxylic acid] | < 5 |
| CC1CCC(C(=O)N(Cc2ccncc2)c2cc(-c3ccccc3)sc2C(=O)O)CC1 (centres unmarked) [Compound 4, 3-[(4-methyl-cyclohexanecarbonyl)-pyridin-4-ylmethyl-amino]-5-phenyl-thiophene-2-carboxylic acid] | < 5 |
| CC1CCC(C(=O)N(c2cc(-c3ccccc3)sc2C(=O)O)C2CCCNCC2)CC1 (centres unmarked) [Compound 6, 3-[azepan-4-yl-(4-methyl-cyclohexanecarbonyl)-amino]-5-phenyl-thiophene-2-carboxylic acid] | < 5 |
| O=C(O)c1sc(-c2ccccc2)cc1N(CC1OCCO1)C(=O)c1ccc(Cl)cc1Cl [Compound 7, 3-[(2,4-dichloro-benzoyl)-[1,3]dioxolan-2-ylmethyl-amino]-5-phenyl-thiophene-2-carboxylic acid] | < 5 |
| CC1CCC(C(=O)N(CC2OCCO2)c2cc(-c3ccccc3)sc2C(=O)O)CC1 (centres unmarked) [Compound 8, 3-[[1,3]dioxolan-2-ylmethyl-(4-methyl-cyclohexanecarbonyl)-amino]-5-phenyl-thiophene-2-carboxylic acid] | < 5 |
| CC1CCC(F)(C(=O)N(c2cc(-c3ccccc3)sc2C(=O)O)C(C)C)CC1 (stereo not drawn) [Compound 9, Trans-3-[(1-Fluoro-4-methyl-cyclohexanecarbonyl)-isopropyl-amino]-5-phenyl-thiophene-2-carboxylic acid] | < 5 |
| CC(=O)NC1CC(C)CCC1C(=O)N(c1cc(-c2ccccc2)sc1C(=O)O)C(C)C (centres unmarked) [Compound 12, 3-[(2-acetylamino-4-methyl-cyclohexanecarbonyl)-isopropyl-amino]-5-phenyl-thiophene-2-carboxylic acid] | 5 to 20 |
| CC1CCC(C(=O)N(c2cc(-c3ccccc3)sc2C(=O)O)C2CCC(=O)CC2)CC1 (centres unmarked) [Compound 13, 3-[(4-methyl-cyclohexanecarbonyl)-(4-oxo-cyclohexyl)-amino]-5-phenyl-thiophene-2-carboxylic acid] | < 5 |
| CC1CCC(C(=O)N(Cc2ccccn2)c2cc(-c3ccccc3)sc2C(=O)O)CC1 (centres unmarked) [Compound 14, 3-[(4-methyl-cyclohexanecarbonyl)-pyridin-2-ylmethyl-amino]-5-phenyl-thiophene-2-carboxylic acid] | < 5 |
| C[C@H]1CC[C@H](C(=O)N(c2cc(-c3ccccc3)sc2C(=O)O)[C@H]2CC[C@H](O)CC2)CC1 [Compound 15, 3-[(trans-4-Hydroxy-cyclohexyl)-(trans-4-methyl-cyclohexanecarbonyl)-amino]-5-phenyl-thiophene-2-carboxylic acid] | < 5 |

| Compound | IC50 [µM] |
| --- | --- |
| CC1CCC(C(=O)N(c2cc(-c3ccccc3)sc2C(=O)O)C2CCC(=NO)CC2)CC1 (centres unmarked) [Compound 16, 3-[(4-hydroxyimino-cyclohexyl)-(4-methyl-cyclohexanecarbonyl)-amino]-5-phenyl-thiophene-2-carboxylic acid] | < 5 |
| CC1=CCC(C(=O)N(c2cc(-c3ccccc3)sc2C(=O)O)C(C)C)CC1 (centres unmarked) [Compound 17, 3-[isopropyl-(4-methyl-cyclohex-3-enecarbonyl)-amino]-5-phenyl-thiophene-2-carboxylic acid] | < 5 |
| CCC(C)C(CN=[N+]=[N-])N(C(=O)c1ccc(Cl)cc1Cl)c1cc(-c2ccccc2)sc1C(=O)O (centres unmarked) [Compound 18, 3-[(1-azidomethyl-2-methyl-butyl)-(2,4-dichloro-benzoyl)-amino]-5-phenyl-thiophene-2-carboxylic acid] | < 5 |
| CCC(C)C(C[NH3+])N(C(=O)c1ccccc1Cl)c1cc(-c2ccccc2)sc1C(=O)O (centres unmarked) [Compound 19, 2-[(2-carboxy-5-phenyl-thiophen-3-yl)-(2-chloro-benzoyl)-amino]-3-methyl-pentyl-ammonium trifluoroacetate] | > 20 |
| CCC(C)C(CN)N(C(=O)c1ccc(Cl)cc1Cl)c1cc(-c2ccccc2)sc1C(=O)O (centres unmarked) [Compound 20, 3-[(1-aminomethyl-2-methyl-butyl)-(2,4-dichloro-benzoyl)-amino]-5-phenyl-thiophene-2-carboxylic acid] | 5 to 20 |
| CC1COC(C(=O)N(c2cc(-c3ccccc3)sc2C(=O)O)C(C)C)OC1 (centres unmarked) [Compound 22, 3-[isopropyl-(5-methyl-[1,3]dioxane-2-carbonyl)-amino]-5-phenyl-thiophene-2-carboxylic acid] | 5 to 20 |
| CC(C)N(C(=O)[C@@H]1CC[C@@H](C)C[C@@H]1O)c1cc(-c2ccc(F)cc2)sc1C(=O)O [Compound 24] | < 5 |
| CON=C1CCC(N(C(=O)C2CCC(C)CC2)c2cc(-c3ccccc3)sc2C(=O)O)CC1 (centres unmarked) [Compound 25, 3-[(4-methoxyimino-cyclohexyl)-(4-methyl-cyclohexanecarbonyl)-amino]-5-phenyl-thiophene-2-carboxylic acid] | < 5 |
| CC(C)N(C(=O)C1=CC[C@H](C)CC1)c1cc(-c2ccc(F)cc2)sc1C(=O)O [Compound 26, (4R)-5-(4-Fluoro-phenyl)-3-[isopropyl-(4-methyl-cyclohex-1-enecarbonyl)-amino]-thiophene-2-carboxylic acid] | < 5 |
| C=C1CCC(C(=O)N(c2cc(-c3ccccc3)sc2C(=O)O)C(C)C)CC1 [Compound 28, 3-[isopropyl-(4-methylene-cyclohexanecarbonyl)-amino]-5-phenyl-thiophene-2-carboxylic acid] | < 5 |
| CC1CCC(C(=O)N(c2cc(-c3ccccc3)sc2C(=O)O)C(C)C)OC1 (stereo not drawn) [Compound 29, 3-[Isopropyl-(cis-5-methyl-tetrahydro-pyran-2-carbonyl)-amino]-5-phenyl-thiophene-2-carboxylic acid] | 5 to 20 |
| CC1=CCC(C(=O)N(c2cc(-c3ccccc3)sc2C(=O)O)C(C)C)OC1 (centres unmarked) [Compound 30, 3-[isopropyl-(5-methyl-3,6-dihydro-2H-pyran-2-carbonyl)-amino]-5-phenyl-thiophene-2-carboxylic acid] | < 5 |
| CC1CCC(C(=O)N(c2cc(-c3ccccc3)sc2C(=O)O)C2CCOCC2)C(O)C1 (centres unmarked) [Compound 31, 3-[(2-hydroxy-4-methyl-cyclohexanecarbonyl)-(tetrahydro-pyran-4-yl)-amino]-5-phenyl-thiophene-2-carboxylic acid] | < 5 |
| CC1CCC(C(=O)N(c2cc(-c3ccccc3)sc2C(=O)O)C(C)CN=[N+]=[N-])CC1 (centres unmarked) [Compound 32, 3-[(2-azido-1-methyl-ethyl)-(4-methyl-cyclohexanecarbonyl)-amino]-5-phenyl-thiophene-2-carboxylic acid] | < 5 |
| C[C@H]1CC[C@H](C(=O)N(c2cc(-c3ccccc3)sc2C(=O)O)C2CCSCC2)CC1 [Compound 34, 3-[(trans-4-Methyl-cyclohexanecarbonyl)-(tetrahydro-thiopyran-4-yl)-amino]-5-phenyl-thiophene-2-carboxylic acid] | < 5 |
| CC1CCC(C(=O)N(CC2CCCN(C)C2)c2cc(-c3ccccc3)sc2C(=O)O)CC1 (centres unmarked) [Compound 35, 3-{[(2-carboxy-5-phenyl-thiophen-3-yl)-(4-methyl-cyclohexanecarbonyl)-amino]-methyl}-1-methyl-piperidinium chloride] | < 5 |
| CC1CCC(C(=O)N(c2cc(-c3ccccc3)sc2C(=O)O)C(C)CN)CC1 (centres unmarked) [Compound 36, 3-[(2-amino-1-methyl-ethyl)-(4-methyl-cyclohexanecarbonyl)-amino]-5-phenyl-thiophene-2-carboxylic acid] | < 5 |

Same assay, conditions: read-out: Activity (polymerase activity, IC50)

| Compound | IC50 [µM] |
| --- | --- |
| CC1CCC(C(=O)N(c2cc(-c3cccc(F)c3)sc2C(=O)O)C(C)C)CC1 (centres unmarked) [Compound 5, 5-(3-fluoro-phenyl)-3-[isopropyl-(4-methyl-cyclohexanecarbonyl)-amino]-thiophene-2-carboxylic acid] | < 5 |
